Earlier results on two molecules are cited in patent US6538179B1, “Enhanced starch biosynthesis in seeds” (Monsanto Technology LLC, priority 1990, dated 2003).

The target in the series is plant ADPGPP (Solanum tuberosum, UniProt P23509+Q00081).

Structures are written as SMILES.

Chain of plant ADPGPP (Q00081 whole entry): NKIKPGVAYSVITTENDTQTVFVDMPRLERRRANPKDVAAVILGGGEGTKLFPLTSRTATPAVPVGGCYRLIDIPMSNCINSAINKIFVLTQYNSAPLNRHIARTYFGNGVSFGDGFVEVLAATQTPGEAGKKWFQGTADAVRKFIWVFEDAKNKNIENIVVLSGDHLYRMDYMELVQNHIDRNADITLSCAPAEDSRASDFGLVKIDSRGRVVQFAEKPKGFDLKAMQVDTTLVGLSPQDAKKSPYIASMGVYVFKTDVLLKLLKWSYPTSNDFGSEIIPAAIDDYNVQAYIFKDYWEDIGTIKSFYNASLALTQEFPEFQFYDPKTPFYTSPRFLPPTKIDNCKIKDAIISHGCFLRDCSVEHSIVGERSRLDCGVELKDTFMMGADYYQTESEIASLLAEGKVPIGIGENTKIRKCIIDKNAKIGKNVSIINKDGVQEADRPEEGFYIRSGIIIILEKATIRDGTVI
Chain of plant ADPGPP (P23509 73-521): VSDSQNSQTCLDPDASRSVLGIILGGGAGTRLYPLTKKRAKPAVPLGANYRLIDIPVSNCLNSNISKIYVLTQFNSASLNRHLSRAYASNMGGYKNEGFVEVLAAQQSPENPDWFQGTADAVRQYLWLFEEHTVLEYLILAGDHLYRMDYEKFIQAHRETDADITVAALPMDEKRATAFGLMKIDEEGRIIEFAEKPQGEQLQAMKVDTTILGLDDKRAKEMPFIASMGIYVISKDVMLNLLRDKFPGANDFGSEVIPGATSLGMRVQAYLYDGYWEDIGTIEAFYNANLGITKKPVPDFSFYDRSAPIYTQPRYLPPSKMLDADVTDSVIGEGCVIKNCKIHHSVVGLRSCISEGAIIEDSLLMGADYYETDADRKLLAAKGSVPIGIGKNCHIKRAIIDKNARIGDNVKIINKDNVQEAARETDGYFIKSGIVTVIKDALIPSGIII

Take `O=C(O)[C@H](O)COP(=O)(O)O` [3-PGA, 3-phosphoglycerate]: the EC50 (activation of ADPGPP by 3-PGA, read-out: A0.5) was 75 µM.

Regarding `O=P(O)(O)O` [Pi, inorganic phosphate], the IC50 (read-out: I0.5, inhibition of ADPGPP by Pi) is 45 µM.
